Source: patent US7728012B2, “Carboxamide compounds and their use as calpain inhibitors” (Abbott GmbH & Co. KG, priority 2006, dated 2010)

What was measured:
Type in all cases: biochemical
[1] = target: T1, calpain-I isolated from human erythrocytes (Homo sapiens, UniProt P07384); assay: Calpain I kinetic fluorescence enzyme inhibition assay; details: apparent Ki from IC50 by Cheng-Prussoff; average of 2 to 4 dose-effect plots
T1 construct: calpain-I—isolated from human erythrocytes; purchased Calbiochem 208713; host or cells: human erythrocytes (tissue isolate)
T1 sequence (P07384 1-714): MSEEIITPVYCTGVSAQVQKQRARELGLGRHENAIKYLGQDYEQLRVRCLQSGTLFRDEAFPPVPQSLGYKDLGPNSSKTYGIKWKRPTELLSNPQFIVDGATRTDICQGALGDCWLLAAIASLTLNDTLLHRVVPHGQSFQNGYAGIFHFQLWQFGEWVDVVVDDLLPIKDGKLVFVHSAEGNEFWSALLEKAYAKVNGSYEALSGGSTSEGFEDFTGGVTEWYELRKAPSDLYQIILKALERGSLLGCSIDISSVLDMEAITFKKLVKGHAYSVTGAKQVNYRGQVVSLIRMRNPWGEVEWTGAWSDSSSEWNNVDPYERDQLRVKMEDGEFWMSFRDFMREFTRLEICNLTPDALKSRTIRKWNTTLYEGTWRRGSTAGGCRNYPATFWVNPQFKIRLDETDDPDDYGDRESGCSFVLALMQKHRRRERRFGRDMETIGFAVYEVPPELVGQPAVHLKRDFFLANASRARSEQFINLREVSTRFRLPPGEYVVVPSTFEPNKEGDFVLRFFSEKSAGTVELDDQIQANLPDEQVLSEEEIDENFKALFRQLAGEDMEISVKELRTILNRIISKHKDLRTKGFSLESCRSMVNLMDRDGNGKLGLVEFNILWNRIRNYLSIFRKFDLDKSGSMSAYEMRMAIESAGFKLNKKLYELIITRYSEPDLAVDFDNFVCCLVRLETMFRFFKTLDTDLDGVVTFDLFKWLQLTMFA
T1 sequence (P04632 1-268 partner): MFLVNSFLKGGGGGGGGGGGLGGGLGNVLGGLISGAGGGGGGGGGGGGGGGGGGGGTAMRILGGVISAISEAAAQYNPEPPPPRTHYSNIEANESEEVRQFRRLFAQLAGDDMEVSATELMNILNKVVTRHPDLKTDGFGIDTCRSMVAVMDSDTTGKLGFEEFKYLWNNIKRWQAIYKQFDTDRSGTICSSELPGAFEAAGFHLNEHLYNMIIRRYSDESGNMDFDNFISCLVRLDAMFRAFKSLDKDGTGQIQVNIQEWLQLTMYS

[2] = target: T2, cathepsin B isolated from human liver (Homo sapiens, UniProt P07858); assay: Cathepsin B kinetic fluorescence enzyme inhibition assay; details: selectivity ratio versus calpain I
T2 construct: cathepsin B—isolated from human liver; purchased Calbiochem 219362; host or cells: human liver (tissue isolate)
Procedure, shortened: (§1)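 Kinetic fluorescence (ex 390/em 460 nm) at room temperature in 50 mM MES, 2 mM EDTA, 0.05% Brij 35, 2.5 mM L-cysteine, pH 6.0. Cathepsin B (liver, 0.25 nM) with 100 μM Z-Phe-Arg-AMC; cathepsin L (liver, 1 nM) with 2 μM Z-Phe-Arg-AMC; recombinant E. coli cathepsin S (0.5 nM) with 20 μM Z-Val-Val-Arg-AMC. Ki via Cheng-Prusoff.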

[3] = target: T3, cathepsin K activated from recombinant human procathepsin K (Homo sapiens, UniProt P43235); assay: Cathepsin K kinetic fluorescence enzyme inhibition assay; details: selectivity ratio versus calpain I
T3 construct: purchased Calbiochem 342001; host or cells: E. coli
T3 sequence (P43235 115-329): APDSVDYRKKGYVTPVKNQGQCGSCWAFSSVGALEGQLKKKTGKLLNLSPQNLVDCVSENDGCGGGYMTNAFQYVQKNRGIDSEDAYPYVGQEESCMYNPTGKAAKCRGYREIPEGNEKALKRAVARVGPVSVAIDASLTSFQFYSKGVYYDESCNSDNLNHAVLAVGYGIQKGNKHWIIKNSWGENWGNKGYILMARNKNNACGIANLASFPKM

[4] = target: T4, cathepsin L isolated from human liver (Homo sapiens, UniProt P07711); assay: Cathepsin L kinetic fluorescence enzyme inhibition assay; details: selectivity ratio versus calpain I
T4 construct: cathepsin L—isolated from human liver; purchased Calbiochem 219402; host or cells: human liver (tissue isolate)
Procedure, shortened: as §1

[5] = target: T5, recombinant human cathepsin S (Homo sapiens, UniProt P25774); assay: Cathepsin S kinetic fluorescence enzyme inhibition assay; details: selectivity ratio versus calpain I
T5 construct: purchased Calbiochem 219343; host or cells: E. coli
Procedure, shortened: as §1

T4 sequence (P07711 114-333): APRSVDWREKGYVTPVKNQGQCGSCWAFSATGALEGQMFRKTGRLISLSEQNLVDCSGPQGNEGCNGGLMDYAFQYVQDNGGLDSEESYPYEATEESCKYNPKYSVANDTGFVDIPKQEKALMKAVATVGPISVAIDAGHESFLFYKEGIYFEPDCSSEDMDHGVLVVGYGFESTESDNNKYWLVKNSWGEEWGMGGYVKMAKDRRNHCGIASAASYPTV
T5 sequence (P25774 115-331): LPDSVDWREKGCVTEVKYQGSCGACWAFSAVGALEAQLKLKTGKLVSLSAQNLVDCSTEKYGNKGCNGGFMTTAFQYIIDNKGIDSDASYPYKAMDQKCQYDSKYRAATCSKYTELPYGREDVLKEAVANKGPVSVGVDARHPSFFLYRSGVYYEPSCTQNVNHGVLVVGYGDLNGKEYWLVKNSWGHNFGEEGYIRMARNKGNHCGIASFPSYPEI

| Structure (SMILES) | Ki [1] | Sel cat. B (Ki(cathepsin B)/Ki(calpain) ratio) [2] | Sel cat. K (Ki(cathepsin K)/Ki(calpain) ratio) [3] | Sel cat. L (Ki(cathepsin L)/Ki(calpain) ratio) [4] | Sel cat. S (Ki(cathepsin S)/Ki(calpain) ratio) [5] |
| --- | --- | --- | --- | --- | --- |
| NC(=O)C(=O)C(Cc1ccccc1)NC(=O)c1cccnc1-n1cc2c(n1)-c1cc(Cl)ccc1OC2 (stereo not shown) [Example 140, N-[3-Amino-2,3-dioxo-1-(phenylmethyl)propyl]-2-(8-chlorochromeno[4,3-c]pyrazol-2(4H)-yl)pyridine-3-carboxamide] | ≤ 40 nM | + (10≦Ki(cathepsin B)/Ki(calpain)<30) | ++ (Ki(cathepsin K)/Ki(calpain) ratio of ≧30) | ++ (Ki(cathepsin L)/Ki(calpain) ratio of ≧50) | ++ (Ki(cathepsin S)/Ki(calpain) ratio of ≧100) |
| COc1ccc(F)cc1-c1ccn(-c2ncccc2C(=O)NC(Cc2ccccc2)C(=O)C(N)=O)n1 (stereo not shown) [Example 130, N-[3-Amino-2,3-dioxo-1-(phenylmethyl)propyl]-2-{3-[5-fluoro-2-(methyloxy)phenyl]-1H-pyrazol-1-yl}pyridine-3-carboxamide] | ≤ 40 nM | ++ (Ki(cathepsin B)/Ki(calpain) ratio of ≧30) | ++ (Ki(cathepsin K)/Ki(calpain) ratio of ≧30) | ++ (Ki(cathepsin L)/Ki(calpain) ratio of ≧50) | ++ (Ki(cathepsin S)/Ki(calpain) ratio of ≧100) |
| NC(=O)C(=O)C(Cc1ccc(OCc2ccccc2)cc1)NC(=O)c1cccnc1-n1ccc(-c2ccccc2)n1 (stereo not shown) [Example 127, N-[3-Amino-2,3-dioxo-1-({4-[(phenylmethyl)oxy]phenyl}methyl)propyl]-2-(3-phenyl-1H-pyrazol-1-yl)pyridine-3-carboxamide] | ≤ 40 nM | ++ (Ki(cathepsin B)/Ki(calpain) ratio of ≧30) | ++ (Ki(cathepsin K)/Ki(calpain) ratio of ≧30) | ++ (Ki(cathepsin L)/Ki(calpain) ratio of ≧50) | ++ (Ki(cathepsin S)/Ki(calpain) ratio of ≧100) |
| NC(=O)C(=O)C(Cc1ccccc1)NC(=O)c1cccnc1-n1ccc(-c2cccc3c2OC(F)(F)O3)n1 (stereo not shown) [Example 119, N-[3-Amino-2,3-dioxo-1-(phenylmethyl)propyl]-2-[3-(2,2-difluoro-1,3-benzodioxol-4-yl)-1H-pyrazol-1-yl]pyridine-3-carboxamide] | ≤ 40 nM | ++ (Ki(cathepsin B)/Ki(calpain) ratio of ≧30) | ++ (Ki(cathepsin K)/Ki(calpain) ratio of ≧30) | ++ (Ki(cathepsin L)/Ki(calpain) ratio of ≧50) | ++ (Ki(cathepsin S)/Ki(calpain) ratio of ≧100) |
| COc1ccc(CC(NC(=O)c2cccnc2-n2ccc(-c3ccccc3F)n2)C(=O)C(N)=O)cc1 (stereo not shown) [Example 92, N-(3-Amino-1-{[4-(methyloxy)phenyl]methyl}-2,3-dioxopropyl)-2-[3-(2-fluorophenyl)-1H-pyrazol-1-yl]pyridine-3-carboxamide] | 40 to 100 nM | ++ (Ki(cathepsin B)/Ki(calpain) ratio of ≧30) | + (10≦Ki(cathepsin K)/Ki(calpain)<30) | ++ (Ki(cathepsin L)/Ki(calpain) ratio of ≧50) | ++ (Ki(cathepsin S)/Ki(calpain) ratio of ≧100) |

More lines, main results first:

| Ki [1] | Structure (SMILES) | Sel cat. B (Ki(cathepsin B)/Ki(calpain) ratio) [2] | Sel cat. K (Ki(cathepsin K)/Ki(calpain) ratio) [3] | Sel cat. L (Ki(cathepsin L)/Ki(calpain) ratio) [4] | Sel cat. S (Ki(cathepsin S)/Ki(calpain) ratio) [5] |
| --- | --- | --- | --- | --- | --- |
| ≤ 40 nM | COc1ccc(CC(NC(=O)c2cccnc2-n2ccc(-c3ccc(F)cc3OC)n2)C(=O)C(N)=O)cc1 (stereo not shown) [Example 136, N-(3-Amino-1-{[4-(methyloxy)phenyl]methyl}-2,3-dioxopropyl)-2-{3-[4-fluoro-2-(methyloxy)phenyl]-1H-pyrazol-1-yl}pyridine-3-carboxamide] | ++ (Ki(cathepsin B)/Ki(calpain) ratio of ≧30) | ++ (Ki(cathepsin K)/Ki(calpain) ratio of ≧30) | ++ (Ki(cathepsin L)/Ki(calpain) ratio of ≧50) | ++ (Ki(cathepsin S)/Ki(calpain) ratio of ≧100) |
| ≤ 40 nM | NC(=O)C(=O)C(Cc1ccccc1)NC(=O)c1cccnc1-n1ccc(-c2cccc3ccccc23)n1 (stereo not shown) [Example 110, N-[3-Amino-2,3-dioxo-1-(phenylmethyl)propyl]-2-(3-naphthalen-1-yl-1H-pyrazol-1-yl)pyridine-3-carboxamide] | ++ (Ki(cathepsin B)/Ki(calpain) ratio of ≧30) | ++ (Ki(cathepsin K)/Ki(calpain) ratio of ≧30) | ++ (Ki(cathepsin L)/Ki(calpain) ratio of ≧50) | ++ (Ki(cathepsin S)/Ki(calpain) ratio of ≧100) |
| 40 to 100 nM | NC(=O)C(=O)C(Cc1ccccc1)NC(=O)c1cccnc1-n1ccc(-c2ccc(Cl)cc2Cl)n1 (stereo not shown) [Example 79, N-(3-Amino-1-benzyl-2,3-dioxopropyl)-2-[3-(2,4-dichlorophenyl)-1H-pyrazol-1-yl]nicotinamide] | ++ (Ki(cathepsin B)/Ki(calpain) ratio of ≧30) | ++ (Ki(cathepsin K)/Ki(calpain) ratio of ≧30) | ++ (Ki(cathepsin L)/Ki(calpain) ratio of ≧50) | ++ (Ki(cathepsin S)/Ki(calpain) ratio of ≧100) |
| 40 to 100 nM | NC(=O)C(=O)C(Cc1cccc(F)c1)NC(=O)c1cccnc1-n1ccc(-c2ccccc2OC(F)(F)F)n1 (stereo not shown) [Example 162, N-{3-Amino-1-[(3-fluorophenyl)methyl]-2,3-dioxopropyl}-2-(3-{2-[(trifluoromethyl)oxy]phenyl}-1H-pyrazol-1-yl)pyridine-3-carboxamide] | ++ (Ki(cathepsin B)/Ki(calpain) ratio of ≧30) | ++ (Ki(cathepsin K)/Ki(calpain) ratio of ≧30) | ++ (Ki(cathepsin L)/Ki(calpain) ratio of ≧50) | ++ (Ki(cathepsin S)/Ki(calpain) ratio of ≧100) |
| ≤ 40 nM | NC(=O)C(=O)C(Cc1ccccc1)NC(=O)c1cccnc1-n1ccc(-c2c(F)cccc2F)n1 (stereo not shown) [Example 85, N-[3-Amino-2,3-dioxo-1-(phenylmethyl)propyl]-2-[3-(2,6-difluorophenyl)-1H-pyrazol-1-yl]pyridine-3-carboxamide] | + (10≦Ki(cathepsin B)/Ki(calpain)<30) | ++ (Ki(cathepsin K)/Ki(calpain) ratio of ≧30) | ++ (Ki(cathepsin L)/Ki(calpain) ratio of ≧50) | ++ (Ki(cathepsin S)/Ki(calpain) ratio of ≧100) |
| ≤ 40 nM | NC(=O)C(=O)C(Cc1ccccc1)NC(=O)c1cccnc1-n1ccc(-c2c(Cl)cccc2Cl)n1 (stereo not shown) [Example 95, N-[3-Amino-2,3-dioxo-1-(phenylmethyl)propyl]-2-[3-(2,6-dichlorophenyl)-1H-pyrazol-1-yl]pyridine-3-carboxamide] | ++ (Ki(cathepsin B)/Ki(calpain) ratio of ≧30) | ++ (Ki(cathepsin K)/Ki(calpain) ratio of ≧30) | ++ (Ki(cathepsin L)/Ki(calpain) ratio of ≧50) | ++ (Ki(cathepsin S)/Ki(calpain) ratio of ≧100) |
